Results published in US4315023A, “1-Phenethylimidazole derivatives” (Westwood Pharmaceuticals, Inc., priority 1980, dated 1982).
Counter-ions that a name gives are not always drawn.

What was measured:
Candida albicans = Candida albicans induced vaginal infection in mice; format: in vivo, female mice; conditions: for EC50, Candida Vaginal Infection: Table I, percentage drug concentration giving 50% of the score of untreated control, intravaginal; for EC50 (%) (95% CL), Candida vaginal infection: Table II, N = 5, 5 applications day 0 to 4; for Score, Determination A / Score, Determination B / Score, Mean / Score, Determination C / Score, Determination D: score 0-4
Experimental: A majority of the compounds of formula 3 were evaluated together with the prior art compound of formula 2 in a Candida albicans induced vaginal infection in mice and a Trichophyton quinekeanum induced skin infection in guinea pigs. Sabouraud broth was inoculated with Candida albicans and the inoculum incubated for two days at 28° C. on a rotary shaker. Groups of four to five female mice weighing between 18-21 grams were infected intravaginally with a 0.01 ml portion of the cell suspension containing 10^8 cells/ml on day 0. The mice were treated subcutaneously with 0.5 mg of estradiol benzoate three days before and four days after infection. The test compounds were suspended in 1% carboxymethyl cellulose and 0.02 ml of the suspension was instilled intravaginally from day 0 (four hours after infection) to day 4 (5 applications). On day 7, vaginal exudate was taken by a thin glass rod and streaked on a YGP agar plate containing 100 mcg/ml of chloramphenicol. The plate was incubated for two days at 28° C. […] In the following Table I the antifungal activity of the test compound is reported as the EC50 value, which is the percentage drug concentration giving 50% of the score of untreated control animals. The EC50 was calculated by the method of least squares (K. Brounlee: Statistical Theory and Methodology in Science and Engineering, pages 345-349, Wiley Press, New York, 1965). In Table II a more detailed comparison on the in vivo antifungal activities of compound 3a and the isomeric prior art compound 2 are shown together with the data for compound 3b.

Trichophyton quinekeanum = Trichophyton quinekeanum induced skin infection in guinea pigs; format: in vivo, male guinea pigs; conditions: for EC50, Trichophyton Skin Infection: Table I, percentage drug concentration giving 50% of the score of untreated control, topical ointment; for EC50 (%) (95% CL), Trichophyton skin infection: Table II, N = 4, 3 applications day 1, 3 and 5; for Score, Determ. F / Score, Mean / Score, Determ. G / Score, Determ. E: lesion score 0-4
Experimental: In the guinea pig skin infection test, Trichophyton quinekeanum was cultured on a YGP agar slant at 28° C. for 10 days. Spores were collected from the mycelial mat and suspended in Sabouraud broth containing 2% of Tween 80. Groups of 3 male guinea pigs weighing between 400-500 g were used for each dose of test compound. The flanks of the animals were depilated and injured with sandpaper. The injured area was inoculated and rubbed with a glass rod on day 0 with 0.2 ml of the spore suspension containing 10^8 CFU/ml. The test compound was combined with a 1:1 mixture of polyethylene glycol 400 and 4000, and 0.3 ml of the ointment was applied to the infected area on day 1, 3 and 5. Lesions were examined on day 7 and scored as follows: 0, normal; 1, erythema; 2, erythema with whitish area; 3, erythema and numerous whitish areas; 4, erythema with confluent scaling and whitish pateches. A compound showing a mean score of 1.5 or less was considered active.
In the following Table I the antifungal activity of the test compound is reported as the EC50 value, which is the percentage drug concentration giving 50% of the score of untreated control animals. The EC50 was calculated by the method of least squares (K. Brounlee: Statistical Theory and Methodology in Science and Engineering, pages 345-349, Wiley Press, New York, 1965). In Table II a more detailed comparison on the in vivo antifungal activities of compound 3a and the isomeric prior art compound 2 are shown together with the data for compound 3b.
Treatment: 5 applications (day 0 to 4) against candida vaginal infection
and 3 applications (day 1, 3 and 5) against trichophyton skin infection

Streptococcus pneumoniae = experiment: in vitro antibacterial activity (MIC), S. pneumoniae; format: cell-based; conditions: 50% Nutrient Broth + 5% human serum
Streptococcus pyogenes = experiment: in vitro antibacterial activity (MIC), S. pyogenes; format: cell-based; conditions: 50% Nutrient Broth + 5% human serum
Staphylococcus aureus = experiment: in vitro antibacterial activity (MIC), S. aureus; format: cell-based; conditions: Nutrient Broth
S. faecalis = experiment: in vitro antibacterial activity (MIC), S. faecalis; format: cell-based, Streptococcus faecalis; conditions: Enterococcus faecalis; Nutrient Broth

SMILES: Clc1ccc(SCCSC(Cn2ccnc2)c2ccc(Cl)cc2Cl)cc1 (centres unmarked) [Compound 2, reference compound]
- EC50, Candida Vaginal Infection (Candida albicans): > 0.3%
- EC50 (%) (95% CL), Candida vaginal infection (Candida albicans): > 0.3%
- Score, Determination A (Candida albicans; conc. 0.03%): 2.8
- Score, Determination B (Candida albicans; conc. 0.03%): 3.2
- Score, Mean (Candida albicans; conc. 0.03%): 3.0
- Score, Determination A (Candida albicans; conc. 0.1%): 2.4
- Score, Determination B (Candida albicans; conc. 0.1%): 3.0
- Score, Mean (Candida albicans; conc. 0.1%): 2.7
- Score, Determination A (Candida albicans; conc. 0.3%): 3.4
- Score, Determination B (Candida albicans; conc. 0.3%): 1.8
- Score, Mean (Candida albicans; conc. 0.3%): 2.6
- EC50, Trichophyton Skin Infection (Trichophyton quinekeanum): 0.10%
- EC50 (%) (95% CL), Trichophyton skin infection (Trichophyton quinekeanum): 0.10%
- Score, Determ. F (Trichophyton quinekeanum; conc. 0.03%): 2.3
- Score, Mean (Trichophyton quinekeanum; conc. 0.03%): 2.3
- Score, Determ. F (Trichophyton quinekeanum; conc. 0.1%): 2.3
- Score, Mean (Trichophyton quinekeanum; conc. 0.1%): 2.3
- Score, Determ. F (Trichophyton quinekeanum; conc. 0.3%): 0.5
- Score, Mean (Trichophyton quinekeanum; conc. 0.3%): 0.5

SMILES: Clc1ccc(CSCSC(Cn2ccnc2)c2ccc(Cl)cc2Cl)cc1 (centres unmarked) [Compound 3a, 1-[2-(4-Chlorobenzylthiomethylthio)-2-(2,4-dichlorophenyl)ethyl]1-H-imidazole hydrogen fumarate]
- MIC (Streptococcus pneumoniae): 63 µg/mL
- EC50, Candida Vaginal Infection (Candida albicans): 0.0035%
- EC50 (%) (95% CL), Candida vaginal infection (Candida albicans): 0.0035%
- Score, Determination A (Candida albicans; conc. 0.0003%): 2.8
- Score, Determination B (Candida albicans; conc. 0.0003%): 2.2
- Score, Determination C (Candida albicans; conc. 0.0003%): 3.4
- Score, Determination D (Candida albicans; conc. 0.0003%): 2.5
- Score, Mean (Candida albicans; conc. 0.0003%): 2.6
- Score, Determination A (Candida albicans; conc. 0.001%): 3.0
- Score, Determination B (Candida albicans; conc. 0.001%): 2.2
- Score, Determination C (Candida albicans; conc. 0.001%): 2.8
- Score, Determination D (Candida albicans; conc. 0.001%): 2.0
- Score, Mean (Candida albicans; conc. 0.001%): 2.5
- Score, Determination A (Candida albicans; conc. 0.003%): 1.4
- Score, Determination B (Candida albicans; conc. 0.003%): 2.2
- Score, Determination C (Candida albicans; conc. 0.003%): 3.0
- Score, Determination D (Candida albicans; conc. 0.003%): 1.3
- Score, Mean (Candida albicans; conc. 0.003%): 2.0
- Score, Determination A (Candida albicans; conc. 0.01%): 1.5
- Score, Determination B (Candida albicans; conc. 0.01%): 0.4
- Score, Determination C (Candida albicans; conc. 0.01%): 1.3
- Score, Determination D (Candida albicans; conc. 0.01%): 1.3
- Score, Mean (Candida albicans; conc. 0.01%): 1.1
- Score, Determination A (Candida albicans; conc. 0.03%): 0.6
- Score, Determination B (Candida albicans; conc. 0.03%): 0.8
- Score, Determination C (Candida albicans; conc. 0.03%): 0
- Score, Determination D (Candida albicans; conc. 0.03%): 0.4
- Score, Mean (Candida albicans; conc. 0.03%): 0.45
- times more efficacious than prior art compound 2, Candida induced vaginal infection in mice (Candida albicans; relative to prior art compound 2 (for 3a: hydrogen fumarate vs hydrogen fumarate)): greater than 85 times
- MIC (Streptococcus pyogenes): 63 µg/mL
- EC50, Trichophyton Skin Infection (Trichophyton quinekeanum): 0.039%
- EC50 (%) (95% CL), Trichophyton skin infection (Trichophyton quinekeanum): 0.039%
- Score, Determ. G (Trichophyton quinekeanum; conc. 0.01%): 2.0
- Score, Mean (Trichophyton quinekeanum; conc. 0.01%): 2.0
- Score, Determ. E (Trichophyton quinekeanum; conc. 0.03%): 1.8
- Score, Determ. F (Trichophyton quinekeanum; conc. 0.03%): 2.5
- Score, Determ. G (Trichophyton quinekeanum; conc. 0.03%): 1.5
- Score, Mean (Trichophyton quinekeanum; conc. 0.03%): 1.9
- Score, Determ. E (Trichophyton quinekeanum; conc. 0.1%): 1.5
- Score, Determ. F (Trichophyton quinekeanum; conc. 0.1%): 1.0
- Score, Determ. G (Trichophyton quinekeanum; conc. 0.1%): 0.3
- Score, Mean (Trichophyton quinekeanum; conc. 0.1%): 0.92
- Score, Determ. E (Trichophyton quinekeanum; conc. 0.3%): 1.0
- Score, Determ. F (Trichophyton quinekeanum; conc. 0.3%): 0
- Score, Determ. G (Trichophyton quinekeanum; conc. 0.3%): 0
- Score, Mean (Trichophyton quinekeanum; conc. 0.3%): 0.33
- times more efficacious than prior art compound 2, Trichophyton induced skin infection in guinea pigs (Trichophyton quinekeanum; hydrogen fumarate of 3a vs prior art compound 2): about 2.5 times
- MIC (Staphylococcus aureus; Strain A): 0.5 µg/mL
- MIC (Staphylococcus aureus; Strain B): > 63 µg/mL
- MIC (Staphylococcus aureus; Strain C): > 63 µg/mL
- MIC (S. faecalis): > 63 µg/mL

SMILES: Cl.Clc1ccc(CSCSC(Cn2ccnc2)c2ccc(Cl)cc2Cl)cc1 (centres unmarked) [Compound 3b, 1-[2-(4-Chlorobenzylthiomethylthio)-2-(2,4-dichlorophenyl)ethyl]-1H-imidazole hydrochloride]
- MIC (Streptococcus pneumoniae): > 63 µg/mL
- EC50, Candida Vaginal Infection (Candida albicans): 0.0011%
- EC50 (%) (95% CL), Candida vaginal infection (Candida albicans): 0.0011%
- Score, Determination C (Candida albicans; conc. 0.0003%): 1.6
- Score, Determination D (Candida albicans; conc. 0.0003%): 3.3
- Score, Mean (Candida albicans; conc. 0.0003%): 2.5
- Score, Determination A (Candida albicans; conc. 0.001%): 3.0
- Score, Determination C (Candida albicans; conc. 0.001%): 1.6
- Score, Determination D (Candida albicans; conc. 0.001%): 0.4
- Score, Mean (Candida albicans; conc. 0.001%): 1.7
- Score, Determination A (Candida albicans; conc. 0.003%): 0.4
- Score, Determination B (Candida albicans; conc. 0.003%): 2.0
- Score, Determination C (Candida albicans; conc. 0.003%): 2.2
- Score, Determination D (Candida albicans; conc. 0.003%): 0.2
- Score, Mean (Candida albicans; conc. 0.003%): 1.2
- Score, Determination A (Candida albicans; conc. 0.01%): 1.4
- Score, Determination B (Candida albicans; conc. 0.01%): 0.6
- Score, Determination C (Candida albicans; conc. 0.01%): 1.4
- Score, Determination D (Candida albicans; conc. 0.01%): 0
- Score, Mean (Candida albicans; conc. 0.01%): 0.85
- Score, Determination A (Candida albicans; conc. 0.03%): 0
- Score, Determination B (Candida albicans; conc. 0.03%): 0.8
- Score, Determination C (Candida albicans; conc. 0.03%): 2.4
- Score, Determination D (Candida albicans; conc. 0.03%): 0.8
- Score, Mean (Candida albicans; conc. 0.03%): 1.0
- Score, Determination A (Candida albicans; conc. 0.1%): 0.2
- Score, Determination B (Candida albicans; conc. 0.1%): 0
- Score, Mean (Candida albicans; conc. 0.1%): 0.1
- Score, Determination A (Candida albicans; conc. 0.3%): 0
- Score, Determination B (Candida albicans; conc. 0.3%): 0
- Score, Mean (Candida albicans; conc. 0.3%): 0
- MIC (Streptococcus pyogenes): > 63 µg/mL
- EC50, Trichophyton Skin Infection (Trichophyton quinekeanum): 0.053%
- EC50 (%) (95% CL), Trichophyton skin infection (Trichophyton quinekeanum): 0.053%
- Score, Determ. F (Trichophyton quinekeanum; conc. 0.03%): 3.5
- Score, Determ. G (Trichophyton quinekeanum; conc. 0.03%): 1.3
- Score, Mean (Trichophyton quinekeanum; conc. 0.03%): 2.4
- Score, Determ. F (Trichophyton quinekeanum; conc. 0.1%): 1.0
- Score, Determ. G (Trichophyton quinekeanum; conc. 0.1%): 0.3
- Score, Mean (Trichophyton quinekeanum; conc. 0.1%): 0.7
- Score, Determ. F (Trichophyton quinekeanum; conc. 0.3%): 0.3
- Score, Determ. G (Trichophyton quinekeanum; conc. 0.3%): 0.3
- Score, Mean (Trichophyton quinekeanum; conc. 0.3%): 0.3
- MIC (Staphylococcus aureus; Strain A): > 63 µg/mL
- MIC (Staphylococcus aureus; Strain B): > 63 µg/mL
- MIC (Staphylococcus aureus; Strain C): > 63 µg/mL
- MIC (S. faecalis): > 63 µg/mL

SMILES: Clc1ccc(CSCSC(Cn2ccnc2)c2ccc(Cl)cc2)cc1.O=C(O)/C=C/C(=O)O (centres unmarked) [Compound 3f, 1-[2-(4-Chlorobenzylthiomethylthio)-2-(4-chlorophenyl)ethyl]-1H-imidazole hydrogen fumarate]
- MIC (Streptococcus pneumoniae): 63 µg/mL
- MIC (Streptococcus pyogenes): 63 µg/mL
- MIC (Staphylococcus aureus; Strain A): 1 µg/mL
- MIC (Staphylococcus aureus; Strain B): > 63 µg/mL
- MIC (Staphylococcus aureus; Strain C): 1 µg/mL
- MIC (S. faecalis): 4 µg/mL

SMILES: Clc1ccc(C(Cn2ccnc2)SCSCc2ccc(Cl)cc2Cl)cc1.O=C(O)/C=C/C(=O)O (centres unmarked) [Compound 3g, 1-[2-(4-Chlorophenyl)-2-(2,4-dichlorobenzylthiomethylthio)ethyl]-1H-imidazole hydrogen fumarate]
- MIC (Streptococcus pneumoniae): 63 µg/mL
- MIC (Streptococcus pyogenes): 63 µg/mL
- MIC (Staphylococcus aureus; Strain A): 1 µg/mL
- MIC (Staphylococcus aureus; Strain B): 8 µg/mL
- MIC (Staphylococcus aureus; Strain C): 2 µg/mL
- MIC (S. faecalis): 1 µg/mL

SMILES: Cl.Clc1ccc(C(Cn2ccnc2)SCSCc2ccc(Cl)s2)c(Cl)c1 (centres unmarked) [Compound 3i, 1-[2-(5-Chloro-2-thienylmethylthiomethylthio)-2-(2,4-dichlorophenyl)ethyl]-1H-imidazole hydrochloride]
- EC50, Candida Vaginal Infection (Candida albicans): 0.0022%
- EC50, Trichophyton Skin Infection (Trichophyton quinekeanum): 0.038%
